Data reported in patent US11203577B2, “Sulfonyl-structure-containing triazinone derivatives, their preparation methods and their uses in insect killing and/or bacterium killing” (Nankai University, priority 2017, dated 2021).

Legend:
Maize borers = test: Test of insecticidal activity against maize borers (leaf immersion); settings: read-out: Mortalities (%) Maize borers
Sclerotinia rot of colza = test: In vitro fungicidal activity, PDA colony diameter; format: cell-based; settings: 96 h, 50 mg/kg, inhibition of colony diameter, read-out: Fungicidal activity (%) Sclerotinia rot of colza
Tomato early blight = test: In vitro fungicidal activity, PDA colony diameter; format: cell-based, Alternaria solani; settings: 50 mg/kg, inhibition of colony diameter; read-out: Fungicidal activity (%) Tomato early blight
[1] = test system: Corn southern leaf blight; test: In vitro fungicidal activity, PDA colony diameter; format: cell-based; settings: 50 mg/kg, inhibition of colony diameter; read-out: Fungicidal activity (%) Corn southern leaf blight
Cotton bollworms = test: Test of insecticidal activity against cotton bollworms (pesticide mixed into feedstuff); settings: read-out: Mortalities (%) Cotton bollworms
Method: Method of testing against cotton bollworms: the pesticide is mixed into the feedstuff, i.e., 3 mL prepared solution is added into about 27 g freshly prepared feedstuff; thus, required concentration is obtained by diluting by 10 times.

Rice sheath blight = test: In vitro fungicidal activity, PDA colony diameter; format: cell-based; settings: 50 mg/kg, inhibition of colony diameter; read-out: Fungicidal activity (%) Rice sheath blight
Apple ring rot = test: In vitro fungicidal activity, PDA colony diameter; format: cell-based; settings: inhibition of colony diameter
Method: (§1) Here, the test is described in an example of Alternaria solani; it can be replaced by other fungi.
(§2) In vitro testing method: Alternaria solani is inoculated to a PDA culture medium and cultured for 7 days, a fungus dish with a diameter of […] is prepared on the periphery of the colony with a punch and inoculated to a PDA culture medium that contains pesticide at a concentration of 50 mg/kg and a PDA culture medium that doesn't contain the pesticide, and are cultured for 4 days respectively; then, the colony diameters are measured, and the inhibition percentages of the pesticides are calculated by comparing with the control sample.

[2] = test system: Capsicum phytophthora blight; test: In vitro fungicidal activity, PDA colony diameter; format: cell-based; settings: 96 h
Method: as §1, §2

Watermelon anthracnose = test: In vitro fungicidal activity, PDA colony diameter; format: cell-based; settings: 50 mg/kg, inhibition of colony diameter; read-out: Fungicidal activity (%) Watermelon anthracnose
Wheat sheath blight = test: In vitro fungicidal activity, PDA colony diameter; format: cell-based; settings: 50 mg/kg, inhibition of colony diameter; read-out: Fungicidal activity (%) Wheat sheath blight
Armyworms = test: Test of insecticidal activity against armyworms (leaf immersion); settings: 3-4 days
Rice bakanae disease = test: In vitro fungicidal activity, PDA colony diameter; format: cell-based; settings: 50 mg/kg, inhibition of colony diameter; read-out: Fungicidal activity (%) Rice bakanae disease
Potato late blight = test: microbe, parasite or virus in culture; format: cell-based; settings: Phytophthora infestans, 96 h, read-out: Fungicidal activity (%) Potato late blight
[3] = test system: mosquito larvae (Culer pipiens pallens); test: Test of insecticidal activity against mosquito larvae (checked after 24 h); settings: for insecticidal activity against mosquito larvae: in vivo
Wheat head blight = test: whole plant or invertebrate; format: cell-based; settings: Triticum aestivum, read-out: Fungicidal activity (%) Wheat head blight
Cucumber fusarium wilt = test: In vitro fungicidal activity, PDA colony diameter; format: cell-based; settings: 96 h, 50 mg/kg, inhibition of colony diameter, read-out: Fungicidal activity (%) Cucumber fusarium wilt
[4] = test system: Cercospora brown spot of peanut; test: In vitro fungicidal activity, PDA colony diameter; format: cell-based; settings: 96 h, 50 mg/kg, inhibition of colony diameter, read-out: Fungicidal activity (%) Cercospora brown spot of peanut
[5] = test system: bean aphides (Aphis laburni Kaltenbach); test: Test of insecticidal activity against aphides (leaf immersion, checked after 96 h); settings: for insecticidal activity against aphides compared with pymetrozine: 5 mg/kg; for mortality at 5 mg/kg / mortality at 10 mg/kg / mortality at 100 mg/kg / mortality at 600 mg/kg: Aphis, 96 h, read-out: Mortalities (%) against aphides
Method: The insecticidal activity against aphides is tested through the following steps: the tested aphides are bean aphides (Aphis laburni Kaltenbach), a normal colony fed with broad bean leaves in a laboratory. The pesticide is weighed, 1 mL DMF is added to dissolve the pesticide, then two drops of emulsifier, Tween-20 are added, and distilled water is added in an appropriate amount; the mixture is stirred to a homogeneous state to prepare pesticide solution at required concentration (see the following table for the specific concentration). […] In a control group, only emulsifier and solvent are added into distilled water, and the mixture is stirred to a homogeneous state.

[6] = 24 h, read-out: Mortalities (%) against mosquito larvae

| Compound | mortality at 600 mg/kg (Maize borers) [%] | inhibition of growth at 50 mg/kg (Sclerotinia rot of colza) [%] | inhibition at 50 mg/kg (Tomato early blight) [%] | inhibition at 50 mg/kg [1] [%] | mortality at 600 mg/kg (Cotton bollworms) [%] | inhibition at 50 mg/kg (Rice sheath blight) [%] | inhibition at 50 mg/kg (Apple ring rot) [%] | inhibition of growth at 50 mg/kg [2] [%] | inhibition at 50 mg/kg (Watermelon anthracnose) [%] | inhibition at 50 mg/kg (Wheat sheath blight) [%] | Mortalities (%) Armyworms (Armyworms; 600 mg/kg) [%] | inhibition at 50 mg/kg (Rice bakanae disease) [%] | inhibition of growth at 50 mg/kg (Potato late blight) [%] | mortality at 2 mg/kg [3, 6] [%] | mortality at 5 mg/kg [3, 6] [%] | mortality at 10 mg/kg [3, 6] [%] | inhibition at 50 mg/kg (Wheat head blight) [%] | inhibition of growth at 50 mg/kg (Cucumber fusarium wilt) [%] | inhibition of growth at 50 mg/kg [4] [%] | mortality at 5 mg/kg [5] [%] | further results |
| --- | --- | --- | --- | --- | --- | --- | --- | --- | --- | --- | --- | --- | --- | --- | --- | --- | --- | --- | --- | --- | --- |
| CC1=NNC(=O)N(NS(=O)(=O)c2cccc(F)c2)C1 [Ia-17, 3-fluoro-N-(6-methyl-3-oxo-2,3-dihydro-1,2,4-triazin-4(5H)-yl)-benzenesulfonamide] | 10 | 21 | 13.4 | 0 | 5 | 20.9 | 10.8 | 13.9 | 8.2 | 14.3 | 5 | 13.8 | 3.1 | 60 | 100 | 100 | 35.1 | 5.9 | 16 | 35 | insecticidal activity against aphides compared with pymetrozine [5]: equivalent to the insecticidal activity of pymetrozine; mortality at 10 mg/kg [5]: 85%; mortality at 100 mg/kg [5]: 100%; mortality at 600 mg/kg [5]: 100% |
| CC1=NNC(=O)N(NS(=O)(=O)c2ccc(F)cc2)C1 [Ia-18, 4-fluoro-N-(6-methyl-3-oxo-2,3-dihydro-1,2,4-triazin-4(5H)-yl)-benzenesulfonamide] | 25 | 21 | 11.9 | 3.1 | 0 | 22.1 | 8.1 | 5.6 | 14.7 | 4.3 | 50 | 20.7 | 18.7 | 40 | 100 | 100 | 2.7 | 14.7 | 12 | 45 | insecticidal activity against aphides compared with pymetrozine [5]: equivalent to the insecticidal activity of pymetrozine; mortality at 10 mg/kg [5]: 100%; mortality at 100 mg/kg [5]: 100%; mortality at 600 mg/kg [5]: 100% |
| CC1=NNC(=O)N(NS(=O)(=O)c2ccc(F)cc2F)C1 [Ia-19, 2,4-difluoro-N-(6-methyl-3-oxo-2,3-dihydro-1,2,4-triazin-4(5H)-yl)-benzenesulfonamide] | 20 | 15.8 | 19.4 | 18.7 | 20 | 11.6 | 24.3 | 5.6 | 16.4 | 0 | 25 | 17.2 | 25 | 100 | 100 | 100 | 5.4 | 11.8 | 12 | 25 | mortality at 1 mg/kg [3, 6]: 60%; insecticidal activity against mosquito larvae [3]: relatively high insecticidal activity; insecticidal activity against aphides compared with pymetrozine [5]: equivalent to the insecticidal activity of pymetrozine; mortality at 10 mg/kg [5]: 85%; mortality at 100 mg/kg [5]: 100%; mortality at 600 mg/kg [5]: 100% |
| CC1=NNC(=O)N(NS(=O)(=O)c2ccc(F)c(F)c2F)C1 [Ia-20, 2,3,4-trifluoro-N-(6-methyl-3-oxo-2,3-dihydro-1,2,4-triazin-4(5H)-yl)-benzenesulfonamide] | 50 | 15.8 | 16.4 | 3.1 | 20 | 9.3 | 4.1 | 0 | 13.1 | 17.4 | 65 | 10.3 | 18.7 | 20 | 100 | 100 | 5.4 | 0 | 12 | 10 | mortality at 10 mg/kg [5]: 70%; mortality at 100 mg/kg [5]: 100%; mortality at 600 mg/kg [5]: 100% |
| CC1=NNC(=O)N(NS(=O)(=O)c2ccc(Cl)cc2)C1 [Ia-21, 4-chloro-N-(6-methyl-3-oxo-2,3-dihydro-1,2,4-triazin-4(5H)-yl)-benzenesulfonamide] | 60 | 26.3 | 6 | 15.6 | 50 | 11.6 | 8.1 | 25 | 24.6 | 14.3 | 75 | 24.1 | 18.7 | 40 | 100 | 100 | 16.2 | 5.9 | 12 | 35 | insecticidal activity against aphides compared with pymetrozine [5]: equivalent to the insecticidal activity of pymetrozine; mortality at 10 mg/kg [5]: 85%; mortality at 100 mg/kg [5]: 100%; mortality at 600 mg/kg [5]: 100% |
| CC1=NNC(=O)N(NS(=O)(=O)c2ccc(Br)cc2)C1 [Ia-22, 4-bromo-N-(6-methyl-3-oxo-2,3-dihydro-1,2,4-triazin-4(5H)-yl)-benzenesulfonamide] | 100 | 21 | 6 | 3.1 | 100 | 23.2 | 37.8 | 27.8 | 56.3 | 8.7 | 100 | 17.2 | 25 | 100 | 100 | 100 | 16.2 | 14.7 | 16 | 40 | mortality at 200 mg/kg (Maize borers): 65%; mortality at 200 mg/kg (Cotton bollworms): 80%; Mortalities (%) Armyworms (Armyworms; 200 mg/kg): 70%; mortality at 0.5 mg/kg [3, 6]: 40%; mortality at 1 mg/kg [3, 6]: 100%; insecticidal activity against mosquito larvae [3]: relatively high insecticidal activity; insecticidal activity against aphides compared with pymetrozine [5]: equivalent to the insecticidal activity of pymetrozine; mortality at 10 mg/kg [5]: 100%; mortality at 100 mg/kg [5]: 100%; mortality at 600 mg/kg [5]: 100% |
